Measurements published in publication PMC11211441, “Distributable, metabolic PET reporting of tuberculosis” (Nature Communications, 2024).
Where “and” joins values, the source holds several entries; their conditions need not be identical. Equal values may be shown once.

Tests used:
[1] = test system: Mtb-infected marmoset lung lesions; test: PET/CT imaging of tracer uptake in marmoset TB model; assay type: in vivo; conditions: for SUV/CMR / TGA/CMR: FDG, individual lesions
Method: Rabbits and marmosets at NIAID were anaesthetized and maintained during imaging[49],[67]. Syringes of FDG or FDT were measured in a dose calibrator immediately before and after injection, targeting = injected doses of 2 mCi/kg. During uptake and distribution of the probes, a CT scan from the base of the skull spanning the lungs and the upper abdominal cavity was acquired as described for each species on a helical eight-slice Neurological Ceretom CT scanner (NeuroLogicia, Danvers, MA) operated as part of a hybrid pre-clinical PET/CT system utilizing a common bed. The animal bed was then retracted into the microPET gantry (MicroPET Focus 220, Siemens Preclinical Solutions, Knoxville, TN) and sixty minutesβ ± 5 min post FDG injection, a series of 2 or 3, 10 min emission scans with 75 mm thick windows with a 25 mm overlap were acquired caudal to cranial. […] For the blocking studies, injections of 150 µg of [^19F]FDT synthesized as described above were administered 60 min and 5 min prior to the [^18F]-FDT tracer and the scans were acquired as before. Two animals were used in the blocking studies with one animal receiving the blocking agent while the other was administered saline only prior to the FDT tracer. Two days later, the administrations were reversed so that the second animal received the blocking agent. The emission data for all scans were processed and corrected. Cynomolgus macaques (n = 3) at the University of Pittsburgh were imaged using a Siemens microPET Focus 220 PET scanner and a Neurological Ceretom CT scanner. Paired FDG and FDT scans were collected on only 2 macaques pre-necropsy. Scans were viewed using OsiriX (Pixmeo, Geneva, Switzerland) to identify and analyze individual granulomas as described previously.
Dense lesion centers were subsequently identified for inclusion in the lung region manually and the program calculated the FDG signal parameters. In addition, each lesion within the lung was marked with a 3-D region of interest (ROI). In uninfected marmosets administered FDT, ROIs with a similar-volume (dia. 5 to 7 mm) were distributed in the lung as mock lesions according to the method of Ordonez et al.[70] and the SUV statistics for the ROIs were captured into excel sheets for analysis.

[2] = 1.5 hr voiding window; cited from earlier work
[3] = In vivo metabolism of 18F-labeled trehalose analogs in rabbits
Method: Finally, putative degradation was also probed directly in vivo using both Mtb-infected and naïve rabbits.
Blood (100 µL), urine (100–300 µL) and lesion samples were collected from animals and diluted 2:1 v/v with acetonitrile to sterilize them. These samples were then vortexed, centrifuged and the supernatant analyzed by either HPLC or TLC. The TLC silica gel plates used to assay these metabolism samples and lesion extracts were 150 Å Silica Gel HL 250 µm 10 ×20 cm channeled plates with a pre-adsorbent zone purchased from Analtech/iChromatography (Newark, DE). TLC plates were visualized via exposure to a phosphor screen for 16 h prior to imaging using a phosphor screen and Typhoon FLA7000 (GE Healthcare, Pittsburgh PA) or using a BioScan AR-2000 reader.

[4] = test system: mammalian (porcine) trehalase; test: Trehalase degradation assay; assay type: in vitro ADME; conditions: 0.3 units/mL trehalase, 10 mM substrate; for degradation by trehalase (Figure S5, released glucose): pH 5.7, 37 °C, 60 minutes
Method: The metabolic stabilities of the remaining three analogs, [^18F]FDT, 4-epi-[^18F]FDT and 6-[^18F]FDT were tested. Although, human trehalose-degrading trehalase activity is low and restricted primarily to the brush-border of the kidney where it is thought to be GPI-anchored[28],[32], it can be elevated in some diseases, therefore we also tested degradation of the analogs in vitro using high concentrations of mammalian (porcine) trehalase (0.3 units/mL, 10 mM substrate, Fig. S5). […]
Figure S5. Trehalase Assays.
Substrates were prepared to a final concentration of 10 mM in 0.05 M citric acid, pH 5.7 including trehalase stock solution (0.3 units/mL). The reaction mixture was incubated at 37 °C for 60 minutes, and then quenched with an equal volume of 0.1 M Tris, pH 7.5. Released glucose was measured with glucose assay kit (see Methods).

[5] = [19F]FDT clearance and in vivo stability in marmosets (plasma LC-MS, 19F NMR); parameters: species or system common marmosets; conditions: common marmoset, plasma, iv, 20 mg, marmosets M1-M3 (duplicate measurements), 20 mg IV
Method: In order to determine [^19F]FDT metabolism in vivo, we assessed concentration vs time in two mammalian species: common marmosets and C57BL/6 mice. For marmosets weighing between 290.3–340.3 g, 20 mg of sterile-filtered FDT in PBS was injected IV (n = 3) and ~200 μL blood samples were taken from the femoral vein at 0 min, 5 min, 30 min, 60 min, 90 min and 180 min post injection. Samples were spun (4000 rcf for 10 mins at room temp) to separate red cell mass from plasma. Plasma portion was separated and stored at −80 °C for further analysis. Similarly, mice weighing from 18.7–20.5 g were injected (n = 5) with 5 mg of filter-sterilized FDT solution dissolved in PBS solution, pH 7.4. Mandibular blood samples were taken at 2 min, 15 min, 30 min and 45 min post injection. For the last sample in each mouse, the animal was bled out to get maximum sample for NMR analysis. Final urine samples were collected in 3 out of 5 mice through free catch. Blood samples were centrifuged (6500 rcf for 4 mins at room temp) to separate red cell mass from plasma, and plasma was separated and stored at −80 °C prior to analyzes.
Plasma samples from −80 °C were thawed on ice and mixed with 80% acetonitrile to precipitate plasma proteins and other biomolecules. Samples were centrifuged at 10,000 g, 4 °C for 10 min.
Figure S37. [19F]FDT Clearance and In Vivo Stability in Non-human Primates […]
A, B) 20 mg [19F]FDT was injected into marmosets (A, n=3 biological replicates, each measured in duplicate) and 5 mg FDT injected into mice (B, n=5 biological replicates, each measured in triplicate). […]
marmosets (A) and mice (B).
[19F]FDG was detected, consistent with the only low levels of metabolism seen with [18F]FDT in rabbits (see Figure S3G). C-F) We further analyzed the potential degradation of FDT into FDG by 19F NMR spectroscopy in marmoset plasma (C) sample from 5 min time point, mouse plasma (D) sample from 30 min time point and mouse urine samples from 30 min (E) and 45 min (F) time points, respectively. In all these samples only [19F]FDT was observed (d -201.2). The data points are average values from three replicates with error bars ± SD.
(1 picture or pasted object on this page, not shown here)

[6] = Human microsomal stability assay; conditions: human, microsomes, pH 7.4, %Remaining, human liver microsomes
Method: Microsomal stability assay was carried out as described previously. In brief, 10 x reduced nicotinamide adenine dinucleotide phosphate (NADPH)-regenerating system was freshly prepared by dissolving 37.2 mg glucose-6-phosphate (Sigma) in 1 mL of 100 mM potassium phosphate buffer, 39.8 mg nicotinamide adenine dinucleotide phosphate (NADP, Sigma) in 1 mL of potassium phosphate buffer, 11.5 U glucose-6-phosphate dehydrogenase (Thermo) in 1 mL of potassium phosphate buffer and 26.8 mg MgCl2.6H2O (Sigma) in 1 mL of distilled water. All these solutions were combined and kept on ice. […] After 5 min, 18 µL of NADPH-regenerating system was added to initiate reaction. Immediately after adding the NADPH regenerating system, 50 µL, 0 min time point sample was taken and quenched with equal volume of ice-cold methanol. Similarly further samples were taken at 10 min, 30 min, 60 min, 90 min and 120 min. Samples were centrifuged at 10,000 g at 4 °C for 10 min. […] After incubating the reaction mix at 37 °C for 5 min, 36 µL of NADPH regenerating system was added to initiate the reaction. 50 µL samples were taken at 0 min, 2.5 min, 5 min, 10 min, 20 min, 40 min and 80 min and reactions were quenched by adding equal amount of ice-cold acetonitrile and kept on ice.

[7] = substrate: O=C[C@H](O)[C@@H](O)[C@H](O)[C@H](O)COP(=O)(O)O; test: OtsA^Sf enzyme kinetic assay (NADH-linked continuous); assay type: biochemical, E. coli; conditions: other: enzyme expressed from Spodoptera frugiperda, coupled-enzyme spectrophotometric assay, 25 °C, pH 7.5
Method: OtsA kinetic parameters were also determined by monitoring the formation of T6P by NADH-linked continuous assay.
60 °C with a nitrogen flush.
OtsA Enzyme kinetic assay
spectrophotometric assay.

Molecule: 2-[^18F]fluoro-2-deoxy-D-glucose [[^18F]FDG]
- SUV/CMR ([1]; 4 wks HRZE): 12.2544 and 1.845 and 5.193 and 8.368 and 5.63 and 1.286 and 5.952 and 5.153 and 7.3616
- TGA/CMR ([1]; 4 wks HRZE): 11.4228 and 0.1147 and 1.936 and 8.84 and 2.799 and 0.1598 and 9.617 and 2.242 and 13.7241
- SUV/CMR ([1]; Pre-Rx): 5.878 and 2.269 and 2.719 and 4.3218 and 3.722 and 2.294 and 3.185 and 2.868 and 3.6021
- TGA/CMR ([1]; Pre-Rx): 7.811 and 0.2621 and 2.6706 and 8.989 and 4.301 and 0.5302 and 6.073 and 2.651 and 5.8274
- uptake response to treatment (SUVs and TLG) ([1]; marmosets, 4 weeks HRZE): mixed, refractory and inconsistent uptake
- dose, adrenals [2]: 0.013 mSv/MBq
- dose, kidneys [2]: 0.020 mSv/MBq
- dose, urinary bladder wall [2]: 0.086 mSv/MBq

Molecule: OC[C@H]1O[C@H](O[C@H]2O[C@H](CO)[C@H]([18F])[C@H](O)[C@H]2O)[C@H](O)[C@@H](O)[C@@H]1O [4-epi-[^18F]FDT]
- epi-4-Ftre (%) ([3]; Control Rabbits, 0 min): 100%
- epi-4-Ftre (%) ([3]; Control Rabbits, 15 min): 87%
- epi-4-Ftre (%) ([3]; Control Rabbits, 30 min): 78%
- epi-4-Ftre (%) ([3]; Control Rabbits, 45 min): 87%
- epi-4-Ftre (%) ([3]; Control Rabbits, 60 min): 73%
- epi-4-Ftre (%) ([3]; Control Rabbits, 90 min): 82%
- epi-4-Ftre (%) ([3]; Control Rabbits, 120 min): 76%
- epi-4-Ftre (%) ([3]; Control Rabbits, 180 min): 71%
- epi-4-Ftre (%) ([3]; Infected Rabbits, 0 min): 100%
- epi-4-Ftre (%) ([3]; Infected Rabbits, 15 min): 89%
- epi-4-Ftre (%) ([3]; Infected Rabbits, 30 min): 87%
- epi-4-Ftre (%) ([3]; Infected Rabbits, 45 min): 84%
- epi-4-Ftre (%) ([3]; Infected Rabbits, 60 min): 81%
- epi-4-Ftre (%) ([3]; Infected Rabbits, 90 min): 76%
- epi-4-Ftre (%) ([3]; Infected Rabbits, 120 min): 91%
- epi-4-Ftre (%) ([3]; Infected Rabbits, 180 min): 90%
- metabolism ([3]; rabbits, after 3 h): 30%

Molecule: OC[C@H]1O[C@H](O[C@H]2O[C@H](CO)[C@@H](F)[C@H](O)[C@H]2O)[C@H](O)[C@@H](O)[C@@H]1O [4-epi-[^19F]FDT]
- degradation by trehalase [4]: little or no degradation
- degradation by trehalase (Figure S5, released glucose) [4]: 0

Molecule: OC[C@H]1O[C@H](O[C@H]2O[C@H](CF)[C@@H](O)[C@H](O)[C@H]2O)[C@H](O)[C@@H](O)[C@@H]1O [6-[^19F]FDT]
- degradation by trehalase [4]: 14%
- degradation by trehalase (Figure S5, released glucose) [4]: 14

Molecule: OC[C@H]1O[C@H](O[C@H]2O[C@H](CO)[C@@H](O)[C@H](O)[C@H]2F)[C@H](O)[C@@H](O)[C@@H]1O [FDT]
- concentration at 5 min ([5]; 5 min post injection): 551 µM
- concentration at 30 min ([5]; 30 min post injection): 250 µM
- concentration at 61 min ([5]; 61 min post injection): 173 µM
- concentration at 93 min ([5]; 93 min post injection): 97.1 µM
- remaining at 0 h, 3 µM ([6]; 0 min): 100%
- remaining at 5 min, 3 µM ([6]; 5 min): 74.5%
- remaining at 10 min, 3 µM ([6]; 10 min): 58.5%
- remaining at 20 min, 3 µM ([6]; 20 min): 55.3%
- remaining at 40 min, 3 µM ([6]; 40 min): 56.6%
- remaining at 2.5 min, 3 µM ([6]; […]): 80.1%

Molecule: OC[C@H]1O[C@H](O[C@H]2O[C@H](CO)[C@@H](O)[C@H](O)[C@H]2O)[C@H](O)[C@@H](O)[C@@H]1O [trehalose, reference compound]
- degradation by trehalase [4]: complete degradation
- degradation by trehalase (Figure S5, released glucose) [4]: 100

B1: OtsA^Sf (Escherichia coli K-12) (protein)
chain: MSRLVVVSNRIAPPDEHAASAGGLAVGILGALKAAGGLWFGWSGETGNEDQPLKKVKKGNITWASFNLSEQDLDEYYNQFSNAVLWPAFHYRLDLVQFQRPAWDGYLRVNALLADKLLPLLQDDDIIWIHDYHLLPFAHELRKRGVNNRIGFFLHIPFPTPEIFNALPTYDTLLEQLCDYDLLGFQTENDRLAFLDCLSNLTRVTTRSAKSHTAWGKAFRTEVYPIGIEPKEIAKQAAGPLPPKLAQLKAELKNVQNIFSVERLDYSKGLPERFLAYEALLEKYPQHHGKIRYTQIAPTSRGDVQAYQDIRHQLENEAGRINGKYGQLGWTPLYYLNQHFDRKLLMKIFRYSDVGLVTPLRDGMNLVAKEYVAAQDPANPGVLVLSQFAGAANELTSALIVNPYDRDEVAAALDRALTMSLAERISRHAEMLDVIVKNDINHWQECFISDLKQIVPRSAESQQRDKVATFPKLA
notes: His tag (type from Ni-NTA purification and anti-His blot) (C); made in house; host or cells: Spodoptera frugiperda Sf9 cells (Bac-to-Bac baculovirus)
- Km [7]: 4.9 ± 0.5 mM
- kcat [7]: 57.5 ± 2.3 s⁻¹
- kcat/Km [7]: 11900 M⁻¹ s⁻¹
